Reference: patent publication US12459951B2, “Compounds that interact with RAS superfamily proteins for treatment of cancers, inflammatory diseases, rasopathies, and fibrotic disease” (SHY Therapeutics, LLC, priority 2022, dated 2025)

Assays:
[1] = tested on: MM.1R (expressing wild type KRAS); assay: Proliferation Assay (Cell Viability Assay); assay type: cell-based; details: Homo sapiens, read-out: MM.1R IC50 (nM) Multiple Myloma
Protocol: (§1) Cell lines: these Human tumor-derived cell lines were purchased from American Type Culture Collection. Human tumor-derived pancreatic cancer cell line MiaPaca-2 (expressing KRAS G12C mutant) and Panc-1 (expressing KRas G12D mutant), and Human non-small cell lung cancer (NSCLC) cell line A549 (expressing KRas G12S mutant), and Human melanoma cell line A375 (wild type Kras) were grown in complete DMEM-High Glucose medium. Human tumor-derived pancreatic cancer cell lines SU86.86 (expressing KRas G12D mutant), BxPC3 (expressing wild type K-Ras), and Human non-small cell lung cancer (NSCLC) cell lines NCI-H441 (expressing KRas G12S mutant), NCI-H1975 (expressing wild type KRas), NCI-H358 (expressing KRas G12C mutant), NCI-H1299 (expressing NRas Q61H mutant), and Human colon cancer cell line SW-620 (expressing KRas G12V mutant), Human triple negative breast cancer cell line HCC-1806 (expressing wild type KRas), and Human tumor-derived multiple myeloma cell line MM.1R (expressing wild type KRAS), were grown in RPMI 1640 medium. Human tumor-derived breast cancer cell line BT-549 (expressing wild type KRAS) was grown in RPMI 1640 medium in the presence of 11.8U insulin. Human tumor-derived pancreatic cancer cell line HPAF-II (expressing KRas G12D mutant), Human triple negative breast cancer cell line BT-20 (expressing wild type KRas), and Human colon cancer cell line LS123 (expressing KRas G12S mutant), were grown in EMEM medium. Human tumor-derived pancreatic cancer cell line CF-PAC1 (expressing KRas G12V mutant) was frown in IMDM medium, and Human colon cancer cell line HT29 (expressing wild type KRas) was grown in McCoy's 5A medium. The colon cancer cell line GP2d (expressing KRas G12D mutant) was purchased from MilliporeSigma and grown in DMEM-High Glucose medium. All cell lines were supplemented with penicillin (100 U/mL), streptomycin (100 μg/mL), and 10% heat-inactivated FBS at 37° C. in a humidified incubator with 5% CO2.
(§2) Method: Cells were plated at 2000 to 5000 cells/well density in 96-wells plate and cultured overnight. Small molecules that were tested were added to the cells in the final concentration of 10 μM in the presence of 0.3% DMSO and 10% FBS, and incubated for 2-4 days at 37° C. in a humidified incubator with 5% CO2. For IC50 value determination, serial dilutions of compounds were added to cells under the same conditions.
(§3) Assay: At the end of the incubation period, cell viability was determined using the CellTiter 96® Aqueous One Solution Cell Proliferation Assay according to manufacturer specifications (Promega, Madison, WI). The percentage of small molecules inhibition of cellular proliferation was calculated from raw data.

[2] = tested on: NCI-H358 (expressing KRas G12C mutant); assay: Proliferation Assay (Cell Viability Assay); assay type: cell-based; details: Homo sapiens; Proliferation assay, NCI-H358; read-out: NCI-H358 IC50 (nM) NSCLC
Protocol: as §1, §2, §3

[3] = tested on: BT-549 (expressing wild type KRAS); assay: Proliferation Assay (Cell Viability Assay); assay type: cell-based; details: Homo sapiens, BT-549; Proliferation assay, BT549; read-out: BT549 IC50 (nM) TNBC
Protocol: as §1, §2, §3

[4] = tested on: A375 (wild type Kras); assay: Proliferation Assay (Cell Viability Assay); assay type: cell-based; details: Homo sapiens, A-375; Proliferation assay, A375; read-out: A375 IC50 (nM) Melanoma
Protocol: as §1, §2, §3

[5] = tested on: GP2d (expressing KRas G12D mutant); assay: Proliferation Assay (Cell Viability Assay); assay type: cell-based; details: Homo sapiens, Proliferation assay, read-out: GP2d IC50 (nM) Colorectal
Protocol: as §1, §2, §3

[6] = Mouse Liver Microsome Metabolic Stability Assay; assay type: in vitro ADME; details: pH 7.4, Mouse liver microsomes, 37° C., NADPH, read-out: t½
Protocol: Biological Example 10: Assessment of Metabolic Stability in Mouse Liver Microsomes
Metabolic Stability Assay: Microsomal incubations were carried out in 96-well plates in 5 aliquots of 30 μL each (one for each time point). Liver microsomal incubation medium comprised of phosphate buffer (100 mM, pH 7.4), MgCl2 (3.3 mM), NADPH (3 mM), glucose-6-phosphate (5.3 mM), glucose-6-phosphate dehydrogenase (0.67 units/ml) with 0.42 mg of liver microsomal protein per mL. In the control reactions the NADPH-cofactor system was substituted with phosphate buffer. Test compounds (2 μM, final solvent concentration 1.6%) were incubated with microsomes at 37° C., shaking at 100 rpm. Each reaction was performed in duplicates. Five time points over 40 minutes were analyzed. The reactions were stopped by adding 5 volumes of methanol containing internal standard to incubation aliquots, followed by protein sedimentation by centrifuging at 5500 rpm for 4 minutes. Supernatants were analyzed using the HPLC system coupled with tandem mass spectrometer.
The elimination constant (kel), half-life (t1/2) and intrinsic clearance (Clint) were determined in plot of […] versus time, using linear regression analysis:
In order to indicate the quality of the linear regression analysis, the R (correlation coefficient) values are provided. In some cases, the last time point is excluded from the calculations to ensure acceptable logarithmic linearity of decay.
Table 9 show metabolic stability data for selected compounds tested in the Mouse Liver Microsome Metabolic Stability assay described above.

Compound	IC50 [1]	IC50 [2]	IC50 [3]	IC50 [4]	IC50 [5]	half-life at 2 µM [6]
Cc1c(-c2ccn(C)n2)cn2nc(-c3nccn3C)nc(Nc3cc4c(cn3)CCO4)c12 [Compound 221, N-(5-Methyl-2-(1-methyl-1H-imidazol-2-yl)-6-(1-methyl-1H-pyrazol-3-yl)pyrrolo[2,1-f][1,2,4]triazin-4-yl)-2,3-dihydrofuro[3,2-c]pyridin-6-amine]	< 1 nM	10 to 50 nM	> 50 nM	> 50 nM	> 50 nM	
Cc1c(-c2ccn(C)n2)cn2nc(-c3nccn3C)nc(Nc3cc(N4CCOCC4)ccn3)c12 [Compound 222, 5-Methyl-2-(1-methyl-1H-imidazol-2-yl)-6-(1-methyl-1H-pyrazol-3-yl)-N-(4-morpholinopyridin-2-yl)pyrrolo[2,1-f][1,2,4]triazin-4-amine]	< 1 nM	10 to 50 nM	10 to 50 nM	> 50 nM	> 50 nM	< 10 min
COc1ccc(Nc2nc(-c3nccn3C)nn3cc(-c4ccn(C)n4)c(C)c23)nc1 [Compound 224, N-(5-Methoxypyridin-2-yl)-5-methyl-2-(1-methyl-1H-imidazol-2-yl)-6-(1-methyl-1H-pyrazol-3-yl)pyrrolo[2,1-f][1,2,4]triazin-4-amine]						> 10 min
Cc1ccc(Nc2nc(-c3nccn3C)nn3cc(-c4ccn(C)n4)c(C)c23)nc1 [Compound 226, 5-Methyl-2-(1-methyl-1H-imidazol-2-yl)-6-(1-methyl-1H-pyrazol-3-yl)-N-(5-methylpyridin-2-yl)pyrrolo[2,1-f][1,2,4]triazin-4-amine]						> 10 min
Cc1c(-c2ccn(C)n2)cn2nc(-c3nccn3C)nc(Nc3ccc(N(C)C)cn3)c12 [Compound 227, N5,N5-Dimethyl-N2-(5-methyl-2-(1-methyl-1H-imidazol-2-yl)-6-(1-methyl-1H-pyrazol-3-yl)pyrrolo[2,1-f][1,2,4]triazin-4-yl)pyridine-2,5-diamine]						> 10 min
COc1cc(Nc2nc(-c3nccn3C)nn3cc(-c4ccn(C)n4)c(C)c23)ncc1C [Compound 235, N-(4-Methoxy-5-methylpyridin-2-yl)-5-methyl-2-(1-methyl-1H-imidazol-2-yl)-6-(1-methyl-1H-pyrazol-3-yl)pyrrolo[2,1-f][1,2,4]triazin-4-amine]	< 1 nM	> 50 nM	10 to 50 nM	> 50 nM	> 50 nM	> 10 min
COc1cc(Nc2nc(-c3nccn3C)nn3cc(-c4ccn(C)n4)c(C)c23)ncc1C1CC1 [Compound 238, N-(5-Cyclopropyl-4-methoxypyridin-2-yl)-5-methyl-2-(1-methyl-1H-imidazol-2-yl)-6-(1-methyl-1H-pyrazol-3-yl)pyrrolo[2,1-f][1,2,4]triazin-4-amine]	< 1 nM	> 50 nM	10 to 50 nM	> 50 nM	> 50 nM	> 10 min
